Experimental data reported in patent US20230372221A1, “USE OF THIOPYRIDINONE COMPOUNDS FOR PREVENTING THE FORMATION OF CUTANEOUS BLACKHEADS” (L'OREAL, priority 2020, published 2023).

Test system: oxidation of the L-DOPA under the action of the bacterial extract (intracellular extract of Cutibacterium acnes CIP 53.117)
Experiment: In vitro evaluation of the ability to inhibit the development of the colour (absorbance at 475 nm of L-DOPA + Cutibacterium acnes extract)
Assay type: biochemical
Settings: for inhibiting the development of the colour (result in words): compared with Reference (absence of treatment); for optical density at 475 nm: 32° C.; for % inhib (percentage of inhibition of the formation of the coloured product): from initial rate of oxidation between 10 and 40 minutes vs reference composition
Description: This method is based on the measurement of absorbance, over time, carried out directly on a composition formed of a mixture of intracellular extract of bacteria of Cutibacterium acnes type, of 3,4-dihydroxy-L-phenylalanine (L-DOPA) and of a test compound. The measurements are compared with those carried out for a mixture of an intracellular extract of bacteria of Cutibacterium acnes type and of 3,4-dihydroxy-L-phenylalanine (L-DOPA), in the absence of test compound (reference). The method is adapted from a method for the enzymatic assay of the tyrosinase activity (Behbahani et al., Microchemical Journal (1993), 47, 251), which is based on the absorbance properties at 475 nm of a coloured intermediate of the pathway for the biosynthesis of melanin starting from L-DOPA, namely dopachrome, a product of the oxidation of L-DOPA. An intracellular extract of bacteria of Cutibacterium acnes CIP 53.117 type stored at 4° C. in the lyophilized form is suspended in 1×PBS (supplied by Gibco BRL Life Technologies) at a concentration of 6 mg/ml. A solution of L-DOPA at a concentration of 0.5 mg/ml is prepared by bringing together L-DOPA (supplied by Sigma-Aldrich) and milliQ water, so as to have an L-DOPA concentration of 1 mg/ml, then diluting with 1×PBS (Dulbecco's Phosphate Buffered Saline, supplied by Gibco BRL Life Technologies). The mixture of 50 μl of these two solutions and of 100 μl of 1×PBS (Dulbecco's Phosphate Buffered Saline, supplied by Gibco BRL Life Technologies) results in a composition with a total volume of 200 μl containing L-DOPA (at a concentration of 125 μg/ml) and Cutibacterium acnes extract (at a concentration of 1.5 mg/ml). The test compositions and the reference composition are introduced separately into wells of a 96-well microplate suitable for reading in visible spectrophotometry, and placed at a temperature of 32° C. The formation of a coloured product is monitored over time by spectrophotometry. To do this, the absorbance, or optical density (O.D.), is measured at 475 nm from the time 0 to the time 2 hours by means of a Spectra Max M5e reader and the Spectra Max software (the time 0 corresponds to the introduction of the composition into the wells). The ability to inhibit the development of the colour of a given compound was assessed by comparing the absorbance measurements obtained for the test compositions with those obtained for the reference composition. More specifically, the inhibitory effect of the test compound was evaluated by comparing the initial rate of oxidation of the L-DOPA under the action of the bacterial extract at 475 nm for the test composition with that of the reference composition in order to obtain a corresponding percentage of inhibition. In practice, the initial rate (Vi) of the oxidation reaction is calculated from the linear part of the curve of the graph of the absorbance values. As this part lies between 10 and 40 minutes (see the graph in FIG. 1), the initial rate of the oxidation reaction is determined using the following relationship: [formula] The percentage of inhibition (% inhib) of a given compound with regard to the formation of the coloured product is subsequently obtained using the values of the initial rate of the oxidation reaction for the reference composition (Viref) and for the test composition ([…]) according to the following relationship: [formula] Within the meaning of the invention, a compound is regarded as having an inhibitory effect if the % inhib value is at least 15%.

[1] = test compound 12.5 μM, duration 0 minutes
[2] = test compound 12.5 μM, duration 10 minutes
[3] = test compound 12.5 μM, duration 20 minutes
[4] = test compound 12.5 μM, duration 30 minutes
[5] = test compound 12.5 μM, duration 40 minutes
[6] = test compound 12.5 μM, duration 60 minutes
[7] = test compound 12.5 μM, duration 80 minutes
[8] = test compound 12.5 μM, duration 100 minutes
[9] = test compound 12.5 μM, duration 120 minutes
[10] = test compound 25 μM, duration 0 minutes
[11] = test compound 25 μM, duration 10 minutes
[12] = test compound 25 μM, duration 20 minutes
[13] = test compound 25 μM, duration 30 minutes
[14] = test compound 25 μM, duration 40 minutes
[15] = test compound 25 μM, duration 60 minutes
[16] = test compound 25 μM, duration 80 minutes
[17] = test compound 25 μM, duration 100 minutes
[18] = test compound 25 μM, duration 120 minutes
[19] = test compound 50 μM, duration 0 minutes
[20] = test compound 50 μM, duration 10 minutes
[21] = test compound 50 μM, duration 20 minutes
[22] = test compound 50 μM, duration 30 minutes
[23] = test compound 50 μM, duration 40 minutes
[24] = test compound 50 μM, duration 60 minutes
[25] = test compound 50 μM, duration 80 minutes
[26] = test compound 50 μM, duration 100 minutes
[27] = test compound 50 μM, duration 120 minutes
[28] = test compound 100 μM, duration 0 minutes
[29] = test compound 100 μM, duration 10 minutes
[30] = test compound 100 μM, duration 20 minutes
[31] = test compound 100 μM, duration 30 minutes
[32] = test compound 100 μM, duration 40 minutes
[33] = test compound 100 μM, duration 60 minutes
[34] = test compound 100 μM, duration 80 minutes
[35] = test compound 100 μM, duration 100 minutes
[36] = test compound 100 μM, duration 120 minutes

CCNC(=O)c1ccc[nH]c1=S [Compound 1, N-ethyl-2-thioxo-1,2-dihydropyridine-3-carboxamide]
inhibiting the development of the colour (result in words): very effective
optical density at 475 nm [1]: 0.0553
optical density at 475 nm [2]: 0.0553
optical density at 475 nm [3]: 0.0561
optical density at 475 nm [4]: 0.0569
optical density at 475 nm [5]: 0.0584
optical density at 475 nm [6]: 0.0605
optical density at 475 nm [7]: 0.0631
optical density at 475 nm [8]: 0.0661
optical density at 475 nm [9]: 0.0681
% inhib (percentage of inhibition of the formation of the coloured product) (test compound 12.5 μM): 66%
optical density at 475 nm [10]: 0.0554
optical density at 475 nm [11]: 0.0560
optical density at 475 nm [12]: 0.0572
optical density at 475 nm [13]: 0.0587
optical density at 475 nm [14]: 0.0596
optical density at 475 nm [15]: 0.0601
optical density at 475 nm [16]: 0.0611
optical density at 475 nm [17]: 0.0627
optical density at 475 nm [18]: 0.0640
% inhib (percentage of inhibition of the formation of the coloured product) (test compound 25 μM): 60%
optical density at 475 nm [19]: 0.0541
optical density at 475 nm [20]: 0.0565
optical density at 475 nm [21]: 0.0568
optical density at 475 nm [22]: 0.0569
optical density at 475 nm [23]: 0.0568
optical density at 475 nm [24]: 0.0575
optical density at 475 nm [25]: 0.0574
optical density at 475 nm [26]: 0.0598
optical density at 475 nm [27]: 0.0597
% inhib (percentage of inhibition of the formation of the coloured product) (test compound 50 μM): 96%
optical density at 475 nm [28]: 0.0568
optical density at 475 nm [29]: 0.0555
optical density at 475 nm [30]: 0.0548
optical density at 475 nm [31]: 0.0561
optical density at 475 nm [32]: 0.0555
optical density at 475 nm [33]: 0.0557
optical density at 475 nm [34]: 0.0559
optical density at 475 nm [35]: 0.0564
optical density at 475 nm [36]: 0.0567
% inhib (percentage of inhibition of the formation of the coloured product) (test compound 100 μM): 100%

O=C(O)CNC(=O)c1ccc[nH]c1=S [Compound 2, N-[(2-thioxo-1,2-dihydropyridin-3-yl)carbonyl]glycine]
inhibiting the development of the colour (result in words): very effective
optical density at 475 nm [28]: 0.0547
optical density at 475 nm [29]: 0.0561
optical density at 475 nm [30]: 0.0567
optical density at 475 nm [31]: 0.0569
optical density at 475 nm [32]: 0.0574
optical density at 475 nm [33]: 0.0578
optical density at 475 nm [34]: 0.0578
optical density at 475 nm [35]: 0.0578
optical density at 475 nm [36]: 0.0580
% inhib (percentage of inhibition of the formation of the coloured product) (test compound 100 μM): 84%

CN(CC(=O)O)C(=O)c1ccc[nH]c1=S [Compound 3, N-methyl-N-[(2-thioxo-1,2-dihydropyridin-3-yl)carbonyl]glycine]
inhibiting the development of the colour (result in words): very effective
optical density at 475 nm [1]: 0.0555
optical density at 475 nm [2]: 0.0565
optical density at 475 nm [3]: 0.0575
optical density at 475 nm [4]: 0.0595
optical density at 475 nm [5]: 0.0613
optical density at 475 nm [6]: 0.0647
optical density at 475 nm [7]: 0.0677
optical density at 475 nm [8]: 0.0686
optical density at 475 nm [9]: 0.0694
% inhib (percentage of inhibition of the formation of the coloured product) (test compound 12.5 μM): 39%
optical density at 475 nm [10]: 0.0549
optical density at 475 nm [11]: 0.0569
optical density at 475 nm [12]: 0.0578
optical density at 475 nm [13]: 0.0594
optical density at 475 nm [14]: 0.0607
optical density at 475 nm [15]: 0.0630
optical density at 475 nm [16]: 0.0651
optical density at 475 nm [17]: 0.0664
optical density at 475 nm [18]: 0.0677
% inhib (percentage of inhibition of the formation of the coloured product) (test compound 25 μM): 51%
optical density at 475 nm [19]: 0.0539
optical density at 475 nm [20]: 0.0561
optical density at 475 nm [21]: 0.0575
optical density at 475 nm [22]: 0.0587
optical density at 475 nm [23]: 0.0594
optical density at 475 nm [24]: 0.0609
optical density at 475 nm [25]: 0.0623
optical density at 475 nm [26]: 0.0632
optical density at 475 nm [27]: 0.0639
% inhib (percentage of inhibition of the formation of the coloured product) (test compound 50 μM): 58%
optical density at 475 nm [28]: 0.0579
optical density at 475 nm [29]: 0.0606
optical density at 475 nm [30]: 0.0612
optical density at 475 nm [31]: 0.0619
optical density at 475 nm [32]: 0.0623
optical density at 475 nm [33]: 0.0618
optical density at 475 nm [34]: 0.0606
optical density at 475 nm [35]: 0.0605
optical density at 475 nm [36]: 0.0609
% inhib (percentage of inhibition of the formation of the coloured product) (test compound 100 μM): 78%

CCOC(=O)CN(C)C(=O)c1ccc[nH]c1=S [Compound 4, Ethyl N-methyl-N-[(2-thioxo-1,2-dihydropyridin-3-yl)carbonyl]glycinate]
inhibiting the development of the colour (result in words): very effective
optical density at 475 nm [1]: 0.0550
optical density at 475 nm [2]: 0.0571
optical density at 475 nm [3]: 0.0585
optical density at 475 nm [4]: 0.0604
optical density at 475 nm [5]: 0.0627
optical density at 475 nm [6]: 0.0659
optical density at 475 nm [7]: 0.0679
optical density at 475 nm [8]: 0.0696
optical density at 475 nm [9]: 0.0709
% inhib (percentage of inhibition of the formation of the coloured product) (test compound 12.5 μM): 43%
optical density at 475 nm [10]: 0.0573
optical density at 475 nm [11]: 0.0586
optical density at 475 nm [12]: 0.0595
optical density at 475 nm [13]: 0.0609
optical density at 475 nm [14]: 0.0623
optical density at 475 nm [15]: 0.0650
optical density at 475 nm [16]: 0.0682
optical density at 475 nm [17]: 0.0695
optical density at 475 nm [18]: 0.0703
% inhib (percentage of inhibition of the formation of the coloured product) (test compound 25 μM): 63%
optical density at 475 nm [19]: 0.0558
optical density at 475 nm [20]: 0.0574
optical density at 475 nm [21]: 0.0580
optical density at 475 nm [22]: 0.0591
optical density at 475 nm [23]: 0.0599
optical density at 475 nm [24]: 0.0617
optical density at 475 nm [25]: 0.0634
optical density at 475 nm [26]: 0.0654
optical density at 475 nm [27]: 0.0666
% inhib (percentage of inhibition of the formation of the coloured product) (test compound 50 μM): 75%
optical density at 475 nm [28]: 0.0578
optical density at 475 nm [29]: 0.0579
optical density at 475 nm [30]: 0.0593
optical density at 475 nm [31]: 0.0601
optical density at 475 nm [32]: 0.0608
optical density at 475 nm [33]: 0.0618
optical density at 475 nm [34]: 0.0623
optical density at 475 nm [35]: 0.0627
optical density at 475 nm [36]: 0.0631
% inhib (percentage of inhibition of the formation of the coloured product) (test compound 100 μM): 71%
